The record followed here is patent US20080293746A1 (priority 2007, published 2008).

Data set [1] has as its system CCI-induced static allodynia. Briefly: Chronic constriction injury (CCI) rat model of neuropathic pain, assessment of static allodynia (von Frey hairs, paw withdrawal threshold). Type of data set: in vivo.
Experimental: Animals: Male Sprague Dawley rats (150-250 g at the time of surgery), obtained from Charles River, (Manston, Kent, U.K.) were housed in groups of 3. All animals were kept under a 12 hour light/dark cycle (lights on at 07 h 00 min) with food and water ad libitum. All experiments were carried out by an observer blind to the treatments and in accordance with the Home Office Animals (Scientific Procedures) Act 1986.
The CCI of sciatic nerve was performed as previously described by Bennett and Xie (Bennett G J, Xie Y K. A peripheral mononeuropathy in rat that produces disorders of pain sensation like those seen in man. Pain: 33:87-107, 1988). Animals were anaesthetised with a 2% isofluorane/O2 mixture. The right hind thigh was shaved and swabbed with 1% iodine. Animals were then transferred to a homeothermic blanket for the duration of the procedure and anaesthesia maintained during surgery via a nose cone. The skin was cut along the line of the thighbone and the common sciatic nerve was exposed Four ligatures (4-0 silk) were tied loosely around the nerve, 1 cm proximally to the trifurcation, with approx 1 mm spacing. The incision was closed in layers.
Animals were habituated to wire bottom test cages prior to the assessment of allodynia. Static allodynia was evaluated by application of calibrated von Frey hairs (Stoelting, Wood Dale, Ill., USA.) in ascending order of force (0.8, 1, 1.4, 2, 4, 6, 8, 10, 15 and 26 grams) to the plantar surface of hind paws. Each von Frey hair was applied to the paw for a maximum of 6 seconds, or until a withdrawal response occurred. Once a withdrawal response to a von Frey hair was established, the paw was re-tested, starting with the filament below the one that produced a withdrawal, and subsequently with the remaining filaments in descending force sequence until no withdrawal occurred. The highest force of 26 g lifted the paw as well as eliciting a response, thus represented the cut off point. Each animal had both hind paws tested in this manner. The lowest amount of force required to elicit a response was recorded as paw withdrawal threshold (PWT) in grams. Static allodynia was defined as present if animals responded to a stimulus of, or less than, 4 g, which is innocuous in naive rats (Field M J, Bramwell S, Hughes J, Singh L. Detection of static and dynamic components of mechanical allodynia in rat models of neuropathic pain: are they signalled by distinct primary sensory neurones? Pain, 1999; 83:303-11).
The nature of data set [2]: Free plasma concentrations in the rat CCI studies. To be noted: Sprague Dawley; for concentration at 2.5 h: in vivo. From the text: It is important to ascertain whether any concluded synergy observed in animals or man is due solely to pharmacokinetic interactions.
The next data set in a line: clinical. Conditions: human, in vivo, po.
For data set [3] the following is noted: human, in vivo, po.
Text: (§1) The pharmacokinetics of sildenafil after oral tablet administration have been extensively studied in healthy volunteers. The pharmacokinetics of 1-(2-ethoxyethyl)-5-[ethyl(methyl)amino]-N-mesyl-7-[(4-methyl-2-pyridyl)amino]-1H-pyrazolo[4,3-o]pyrimidine-3-carboxamide have been recently studied in several healthy volunteer studies.
Where [4] appears, read: oral dosing, CCI-induced static allodynia, rat (FIG. 1).

The structures appear in SMILES notation.

Text for clinical: as §1

With `CCOCCn1nc(C(=O)NS(C)(=O)=O)c2nc(N(C)CC)nc(Nc3cc(C)ccn3)c21`, the “effect on any allodynia endpoint” value in data set [1] (compound alone, oral dosing at 0.1 to 1 mg/kg (FIG. 2)) is recorded as “no effect observed”. Moreover, in data set [2] (plasma, oral, 1 mg/kg), the concentration at 1.3 h is at most 10.2 nM and the concentration at 4.3 h was at most 16.1 nM. Further, in the data set “clinical”, the half-life lay within 600 to 900 min.
For `CCCc1nn(C)c2c(=O)[nH]c(-c3cc(S(=O)(=O)N4CCN(C)CC4)ccc3OCC)nc12` [sildenafil, 5-[2-ethoxy-5-(4-methyl-1-piperazinyl-sulphonyl)phenyl]-1-methyl-3-n-propyl-1,6-dihydro-7H-pyrazolo[4,3-d]pyrimidin-7-one], the “steady state peak to trough ratio of plasma concentration time profile” value in data set [3] is given as about 4 fold. For the same molecule, the half-life in “clinical” was 240 min.
In the case of `CC(C)C[C@H](CN)CC(=O)O` [pregabalin, (S)-(+)-4-amino-3-(2-methylpropyl)butanoic acid], in data set [1] (setting [4]), the “dose at which a full effect is achieved” value amounted to 20 mg/kg and the “minimum effective dose (MED)” value was 3 mg/kg. Besides, in data set [1] (pregabalin alone 10 mg/kg, 2 hours after dosing (FIG. 3)), the “effect on static allodynia endpoints” value is recorded as “partially reversed”. Moreover, the concentration at 2.5 h in data set [2] (3 mg/kg) was 17.8 µM. Moreover, in data set [2] (20 mg/kg), the concentration at 2.5 h turned out to be 89.8 µM.

The half-life is the time needed for the level to fall by half in the phase considered. Read a low half-life as rapid decline.
